pEC50: −log10 of the molar value. Values joined by “and” are separate entries in the source; they are usually repeats but may differ in a detail not shown here. Identical values can stand only once.
What was measured:
Uromyces phaseoli [1] = assay: Translocation of protective effect in partially treated unifoliolate bean leaves; format: in vivo; details: for Lesions per cm^2, treated side / Lesions per cm^2, untreated side / Lesions per half leaf, treated side / Lesions per half leaf, untreated side: 1.0 mM on one longitudinal half leaf
[2] = system: Collectotrichum lagenarium; assay: Radial growth in vitro of cucumber anthracnose fungus; format: cell-based, Colletotrichum lagenarium
Procedure: See Table 15 for the effect of DFMO on radial growth in vitro on cucumber anthracnose fungus (Colletcotrichum lagenarium). The cucumber anthracnose fungus growing in Czapek's agar in Petri plates is not affected by DFMO up to 5 mM.

U. phaseoli uredospores = assay: Uredospore germination on the surface of the unifoliolate bean leaf; format: in vivo, Uromyces phaseoli; details: sprayed 1 day before inoculation
[3] = Tabor et al. (1985); cited from earlier work
U. phaseoli [4] = assay: Bean rust severity after DFMO and polyamines alone or combined; format: in vivo, Uromyces phaseoli
Podosphaera leucotricha = assay: Infection of apple by powdery mildew; format: in vivo
Puccinia sorghi = assay: Infection by corn rust; format: in vivo
U. phaseoli [5] = assay: Kinetics of bean rust inhibition by delayed postinoculation DFMO; format: in vivo, Uromyces phaseoli
[6] = system: Botrytis sp., B. cinerea, Rhizoctonia solani, Monilinia fructicola; details: cited from earlier work; for mycelial growth in vitro: Botrytis sp., B. cinerea, Rhizoctonia solani, Monilinia fructicola
Erysiphe polygoni = assay: Infection by bean powdery mildew; format: in vivo
Uromyces phaseoli [7] = assay: Bean rust lesions on reinoculated trifoliolate leaves; details: for Lesions per cm^2 / Lesions per leaflet: reinoculated trifoliolate leaves
Text: Trifoliolate leaves were reinoculated with pathogen after 1 week, before
or after exposure to DFMO, to detect transfer of a protective effect to
other parts of the plant.

tomato plants = assay: Effect on growth of uninoculated tomato plants; format: in vivo, Lycoperisicon esculentum; details: concentrations up to 20 mM; 28-day observation period
arginase = target: T1, arginase (Verticillium dahliae, UniProt G2WV09); assay: Arginase activity in mycelium extracts with DFMA as substrate; format: biochemical; details: mycelium of 12-day old cultures
T1 construct: urea release from arginine or DFMA
T1 sequence (G2WV09 1-327): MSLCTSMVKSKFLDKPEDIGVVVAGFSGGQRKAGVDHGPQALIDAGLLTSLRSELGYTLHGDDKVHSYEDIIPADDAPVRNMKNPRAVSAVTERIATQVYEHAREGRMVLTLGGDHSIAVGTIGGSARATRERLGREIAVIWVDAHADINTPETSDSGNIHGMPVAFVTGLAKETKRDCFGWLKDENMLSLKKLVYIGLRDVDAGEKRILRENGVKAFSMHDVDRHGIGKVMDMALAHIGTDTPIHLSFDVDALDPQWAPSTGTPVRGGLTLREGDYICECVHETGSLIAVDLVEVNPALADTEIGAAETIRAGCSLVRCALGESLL
Procedure: Ornithine decarboxylase and ADCase activity determinations were carried out on 12-day-old mycelium of the fungus cultured on liquid Czapek-Dox medium containing 1% glucose as the carbon source.
Ornithine decarboxylase and ADCase were assayed by the methods of Kaur-Sawhney et al. (4) using D,L-[1-14 C]ornithine and L-[U14 C]arginine as substrates for the respective enzymes. Arginase activity was determined by the methods of Schimke (9), using arginine and DFMA as substrates, and 1-phenyl-1,2-propanedione-2-oxime to detect the urea release by the enzyme. Controls for the arginase determinations were boiled mycelial extracts, and results were adjusted to compensate for readings obtained from substrate blanks. Protein determinations were by the […] method (1), using bovine serum albumin as a reference standard. Difluoromethylornithine and DFMA are products of Merrell-Dow, and are available from them. All other reagents were from Sigma Biochemicals. All experiments were replicated 3 times and repeated twice. Variaions within experiments were generally less than 5%.

[8] = DFMO 0.05 mM alone, postinoculation
[9] = 1.0 mM DFMO sprayed 1 d after spore inoculation
[10] = 1.0 mM DFMO sprayed 2 d after spore inoculation
[11] = 1.0 mM DFMO sprayed 3 d after spore inoculation
[12] = 1.0 mM DFMO sprayed 4 d after spore inoculation
[13] = 1.0 mM DFMO sprayed 5 d after spore inoculation
[14] = postinoculation exposure, DFMO 0.05 mM
[15] = postinoculation exposure, DFMO 0.1 mM
[16] = postinoculation exposure, DFMO 0.5 mM
[17] = postinoculation exposure, DFMO 1.0 mM
[18] = postinoculation exposure, DFMO 5.0 mM
[19] = preinoculation exposure, DFMO 0.05 mM
[20] = preinoculation exposure, DFMO 0.1 mM
[21] = preinoculation exposure, DFMO 0.5 mM
[22] = preinoculation exposure, DFMO 1.0 mM
[23] = preinoculation exposure, DFMO 5.0 mM

With `NCCCC(N)(C(=O)O)C(F)F` (racemic) [DFMO, DL-alpha-difluorimethylornithine] the “protection of the untreated half of the leaf” value (Uromyces phaseoli [1]; petiolar or apical half treated with 1 mM DFMO) was “the other half was also protected against infection”, the “Lesions per cm^2, treated side” value (Uromyces phaseoli [1]; postinoculation exposure) was 0 per cm^2 and the “Lesions per cm^2, untreated side” value (Uromyces phaseoli [1]; postinoculation exposure) was 0 per cm^2. The “Lesions per half leaf, treated side” value (Uromyces phaseoli [1]; postinoculation exposure) was 0 per half leaf, the “Lesions per half leaf, untreated side” value (Uromyces phaseoli [1]; postinoculation exposure) was 0 per half leaf and the “Lesions per cm^2, treated side” value (Uromyces phaseoli [1]; preinoculation exposure) was 0 per cm^2. For the same molecule, the “Lesions per cm^2, untreated side” value (Uromyces phaseoli [1]; preinoculation exposure) was 22 ± 4 per cm^2, the “Lesions per half leaf, treated side” value (Uromyces phaseoli [1]; preinoculation exposure) was 0 per half leaf and the “Lesions per half leaf, untreated side” value (Uromyces phaseoli [1]; preinoculation exposure) was 617 ± 112 per half leaf. The “Radial growth (cm)” value ([2]; 0.10 mM) was 4.5 cm, the “Radial growth (cm)” value ([2]; 0.25 mM) was 4.5 cm and the “Radial growth (cm)” value ([2]; 0.50 mM) was 4.5 cm. For the same molecule, the “Radial growth (cm)” value ([2]; 0.65 mM) was 4.4 cm, the “Radial growth (cm)” value ([2]; 1.00 mM) was 4.0 cm and the “Radial growth (cm)” value ([2]; 5.00 mM) was 3.8 cm. The inhibition of growth at 650 µM ([2]; Colletotrichum orbiculare, 0.65 mM, read-out: Percent control) was 2%, the inhibition of growth at 1000 µM ([2]; Colletotrichum orbiculare, 1.00 mM, read-out: Percent control) was 7% and the inhibition of growth at 5000 µM ([2]; Colletotrichum orbiculare, 5.00 mM, read-out: Percent control) was 16%. The “effect on fungus growing in Czapek's agar” value ([2]; up to 5 mM) was “not affected”, the “spore germination on leaf surface” value (U. phaseoli uredospores; lower concentrations of DFMO) was “partially inhibited” and the “spore germination on leaf surface” value (U. phaseoli uredospores; more than 0.5 mM DFMO) was “completely inhibited”. For the same molecule, the toxicity [3] was “low toxicity”, the “reduction of number of lesions” value (U. phaseoli [4]; 0.05 mM DFMO alone) was 70% and the “Lesions per cm^2” value (U. phaseoli [4]; [8]) was 22 ± 4 per cm^2. For the same molecule, the Lesions per leaf (U. phaseoli [4]; [8]) was 1223 ± 268 per leaf, the “Lesions per leaf, percent of control” value (U. phaseoli [4]; [8]) was 30% of control and the inhibition at 50 µM (U. phaseoli [4]; Uromyces phaseoli, 0.05 mM DFMO, read-out: inhibition of uredial development) was about 50%. For the same molecule, the “Percent control” value (Podosphaera leucotricha; 5 mM) was 48.6%, the “Percent control” value (Puccinia sorghi; 0.01 mM) was 43.5% and the “Percent control” value (Puccinia sorghi; 0.025 mM) was 38.4%. For the same molecule, the “Percent control” value (Puccinia sorghi; 0.065 mM) was 37.4%, the “Percent control” value (Puccinia sorghi; 0.10 mM) was 63.1% and the “Percent control” value (Puccinia sorghi; 0.13 mM) was 67.7%. For the same molecule, the “Percent control” value (Puccinia sorghi; 0.16 mM) was 88.7% and ~90%, the “Percent control” value (Puccinia sorghi; 0.20 mM) was 88.4% and the “Percent control” value (Puccinia sorghi; 1.00 mM) was 94.9%. For the same molecule, the pEC50 (Puccinia sorghi; Puccinia sorghi, read-out: concentration providing 50% protection against corn rust) was over 4.00, the “Lesions per cm^2” value (U. phaseoli [5]; [9]) was 0 per cm^2 and the Lesions per leaf (U. phaseoli [5]; [9]) was 0 per leaf. The “Lesions per cm^2” value (U. phaseoli [5]; [10]) was 0 per cm^2, the Lesions per leaf (U. phaseoli [5]; [10]) was 0 per leaf and the “Lesions per cm^2” value (U. phaseoli [5]; [11]) was 0 per cm^2. The Lesions per leaf (U. phaseoli [5]; [11]) was 0 per leaf, the “Lesions per cm^2” value (U. phaseoli [5]; [12]) was 41 ± 5 per cm^2 and the Lesions per leaf (U. phaseoli [5]; [12]) was 2330 ± 211 per leaf. The “Lesions per cm^2” value (U. phaseoli [5]; [13]) was 53 ± 4 per cm^2, the Lesions per leaf (U. phaseoli [5]; [13]) was 3278 ± 326 per leaf and the “mycelial growth in vitro” value [6] was “inhibited mycelial growth”. The Percent control (Erysiphe polygoni; 5 mM) was 45%, the Percent control (Erysiphe polygoni; 10 mM) was 52% and ~50% and the “protection of newly emerged trifoliolate leaves” value (Uromyces phaseoli [7]; 5.0 mM DFMO, reinoculated after 1 week) was “complete protection”. For the same molecule, the “Lesions per cm^2” value (Uromyces phaseoli [7]; [14]) was 59 ± 1 per cm^2, the Lesions per leaflet (Uromyces phaseoli [7]; [14]) was 1246 ± 73 per leaflet and the “Lesions per cm^2” value (Uromyces phaseoli [7]; [15]) was 58 ± 4 per cm^2. The Lesions per leaflet (Uromyces phaseoli [7]; [15]) was 1289 ± 131 per leaflet, the “Lesions per cm^2” value (Uromyces phaseoli [7]; [16]) was 41 ± 4 per cm^2 and the Lesions per leaflet (Uromyces phaseoli [7]; [16]) was 982 ± 84 per leaflet. The “Lesions per cm^2” value (Uromyces phaseoli [7]; [17]) was 22 ± 2 per cm^2, the Lesions per leaflet (Uromyces phaseoli [7]; [17]) was 422 ± 13 per leaflet and the “Lesions per cm^2” value (Uromyces phaseoli [7]; [18]) was 0 per cm^2. For the same molecule, the Lesions per leaflet (Uromyces phaseoli [7]; [18]) was 0 per leaflet, the “Lesions per cm^2” value (Uromyces phaseoli [7]; [19]) was 64 ± 5 per cm^2 and the Lesions per leaflet (Uromyces phaseoli [7]; [19]) was 1458 ± 92 per leaflet. For the same molecule, the “Lesions per cm^2” value (Uromyces phaseoli [7]; [20]) was 55 ± 3 per cm^2, the Lesions per leaflet (Uromyces phaseoli [7]; [20]) was 1274 ± 120 per leaflet and the “Lesions per cm^2” value (Uromyces phaseoli [7]; [21]) was 39 ± 7 per cm^2. The Lesions per leaflet (Uromyces phaseoli [7]; [21]) was 1172 ± 158 per leaflet, the “Lesions per cm^2” value (Uromyces phaseoli [7]; [22]) was 16 ± 2 per cm^2 and the Lesions per leaflet (Uromyces phaseoli [7]; [22]) was 320 ± 22 per leaflet. For the same molecule, the “Lesions per cm^2” value (Uromyces phaseoli [7]; [23]) was 0 per cm^2, the Lesions per leaflet (Uromyces phaseoli [7]; [23]) was 0 per leaflet and the “growth and development of uninoculated tomato plants” value (tomato plants) was “no apparent effects on the growth and development of the plants”.
In the case of `N=C(N)NCCC[C@](N)(C(=O)O)C(F)F` [DFMA, alpha-difluoromethylarginine], the “Percent control” value (Podosphaera leucotricha; 1 mM) was 0.8%, the “Percent control” value (Podosphaera leucotricha; 5 mM) was 28.8% and the “Percent control” value (Podosphaera leucotricha; 10 mM) was 0.0%. For the same molecule, the “control of apple powdery mildew” value (Podosphaera leucotricha; 1-10 mM applications) was “essentially ineffective”, the “Percent control” value (Puccinia sorghi; 0.01 mM) was 13.0% and the “Percent control” value (Puccinia sorghi; 0.025 mM) was 7.2%. For the same molecule, the “Percent control” value (Puccinia sorghi; 0.065 mM) was 0.0%, the “Percent control” value (Puccinia sorghi; 0.10 mM) was 0.0% and the “Percent control” value (Puccinia sorghi; 0.13 mM) was 9.3%. For the same molecule, the “Percent control” value (Puccinia sorghi; 0.16 mM) was 27.1%, the “Percent control” value (Puccinia sorghi; 0.20 mM) was 14.0% and the “control of corn rust” value (Puccinia sorghi; up to 0.20 mM) was “essentially ineffective”. For the same molecule, the “arginase activity with DFMA as substrate” value (arginase; isolate TS-1B) was 7.1 pM urea/hr/mg protein, the “arginase activity with DFMA as substrate” value (arginase; isolate TS-2B) was 11.3 pM urea/hr/mg protein and the “mycelial growth in vitro” value [6] was “inhibited mycelial growth”. For the same molecule, the “relative inhibition of fungal growth in vitro” value ([6]; Plant Cell Physiol. (1985), vol. 26, 683-692) was “more effective inhibitor of fungal growth than was DFMO”, the Percent control (Erysiphe polygoni; 1 mM) was 7% and the Percent control (Erysiphe polygoni; 5 mM) was 35%. For the same molecule, the Percent control (Erysiphe polygoni; 10 mM) was 35%.

Source: patent US4818770A, “Prevention of a plant disease by specific inhibition of fungal polyamine biosynthesis” (priority 1986, dated 1989)
